Experimental data reported in US10189839B2, “Tricyclic imidazole compounds as inhibitors of tryptophan hydroxylase” (ACTELION PHARMACEUTICALS LTD, priority 2013, dated 2019).

How the values were obtained:
cholangiocarcinoma = settings: xenograft model of cholangiocarcinoma; cited from earlier work
5HT [1] = settings: 200 mg/kg i.p. qid for 3 days; cited from earlier work
full length human TPH1 = target: T1, full length human TPH1 (Homo sapiens, UniProt P17752); assay: Biochemical in vitro assay using fluorescence readout (TPH1 enzyme activity); settings: Table 1, mean where determined several times
T1 construct: To generate the enzyme, full length human TPH1 is cloned into the plasmid pET20b(+); made in house; host or cells: E. coli
T1 sequence (P17752 1-444): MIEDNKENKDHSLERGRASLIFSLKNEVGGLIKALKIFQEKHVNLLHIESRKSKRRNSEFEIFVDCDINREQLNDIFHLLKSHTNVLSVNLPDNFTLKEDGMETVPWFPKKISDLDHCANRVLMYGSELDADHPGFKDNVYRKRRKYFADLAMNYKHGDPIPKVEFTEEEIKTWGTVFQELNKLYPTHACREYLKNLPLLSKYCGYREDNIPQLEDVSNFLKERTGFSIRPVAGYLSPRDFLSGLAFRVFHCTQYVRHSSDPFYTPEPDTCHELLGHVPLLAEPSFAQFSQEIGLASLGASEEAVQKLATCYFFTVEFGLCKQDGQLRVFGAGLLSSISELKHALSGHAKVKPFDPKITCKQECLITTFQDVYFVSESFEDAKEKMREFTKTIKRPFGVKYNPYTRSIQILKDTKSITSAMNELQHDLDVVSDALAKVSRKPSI
Summary of the method: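 E. coli-expressed full-length human TPH1 (40-80 nM), affinity- and size-exclusion-purified, incubated 60 min at 15° C. in 0.1M Tris-HCl pH 7.6 with 1 mM DTT, 0.2 mg/ml catalase, 100 μM 6-methyltetrahydropterine and 40 μM L-tryptophan. 5-Hydroxy-L-tryptophan read by fluorescence (ex 300/em 540 nm) after HClO4 quench; IC50 versus vehicle, mean where repeated.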

5HT [2] = settings: mice; cited from earlier work
[3] = tested on: blood 5HT and urinary 5HIAA; settings: phase IIA study, qid; cited from earlier work
5HT [4] = settings: in vivo; cited from earlier work

SMILES	IC50 (full length human TPH1) [µM]	also measured
N[C@@H](Cc1ccc(Cl)cc1)C(=O)O (racemic) [PCA, p-chlorophenylalanine]	–	tumor volume (cholangiocarcinoma): dramatic reduction in tumor volume; 5HT in the brain (5HT [1]): ~20 % original; 5HT in the gut (5HT [1]): ~50 % original
O=C(COc1ccc(N2CCOCC2)nc1Cl)N1CCc2nc3n(c2C1c1ccc(Cl)cc1F)CCOC3 (stereo not shown) [Example 6.1.1, 1-(6-(4-chloro-2-fluorophenyl)-3,4,8,9-tetrahydro-1 H-pyrido[4′,3′:4,5]imidazo[2,1-c][1,4]oxazin-7(6H)-yl)-2-((2-chloro-6-morpholinopyridin-3-yl)oxy)ethanone]	0.004	–
CS(=O)(=O)Nc1ccc(OCC(=O)N2CCc3nc4n(c3C2c2ccc(Cl)cc2F)CCOC4)c(Cl)n1 (stereo not shown) [Example 6.1.2, N-(6-chloro-5-(2-(6-(4-chloro-2-fluorophenyl)-3,4,8,9-tetrahydro-1H-pyrido[4′,3′:4,5]imidazo[2,1-c][1,4]oxazin-7(6H)-yl)-2-oxoethoxy)pyridin-2-yl)methanesulfonamide]	0.018	–
O=C(COc1ccc(N2CCOCC2)nc1Cl)N1CCc2nc3n(c2C1c1ccc(C2CC2)cc1F)CCOC3 (stereo not shown) [Example 6.2.1, 2-((2-chloro-6-morpholinopyridin-3-yl)oxy)-1-(6-(4-cyclopropyl-2-fluorophenyl)-3,4,8,9-tetrahydro-1H-pyrido[4′,3′:4,5]imidazo[2,1-c][1,4]oxazin-7(6H)-yl)ethanone]	0.004	–
CN(C)C(=O)c1ccc(OCC(=O)N2CCc3nc4n(c3C2c2ccc(C3CC3)cc2F)CCOC4)c(Cl)c1 (stereo not shown) [Example 6.2.2, 3-chloro-4-(2-(6-(4-cyclopropyl-2-fluorophenyl)-3,4,8,9-tetrahydro-1H-pyrido[4′,3′:4,5]imidazo[2,1-c][1,4]oxazin-7(6H)-yl)-2-oxoethoxy)-N,N-dimethylbenzamide]	0.013	–
CN(C)C(=O)c1ccc(OCC(=O)N2CCc3nc4n(c3C2c2ccc(C3CC3)cc2F)CCOC4)c(Cl)n1 (stereo not shown) [Example 6.2.3, 6-chloro-5-(2-(6-(4-cyclopropyl-2-fluorophenyl)-3,4,8,9-tetrahydro-1H-pyrido[4′,3′:4,5]imidazo[2,1-c][1,4]oxazin-7(6H)-yl)-2-oxoethoxy)-N,N-dimethylpicolinamide]	0.003	–
CN(C)C(=O)c1ccc(OCC(=O)N2CCc3nc4n(c3C2c2sc(C(=O)N(C)C)cc2F)CCOC4)c(Cl)n1 (stereo not shown) [Example 6.3.1, 6-chloro-5-(2-(6-(5-(dimethylcarbamoyl)-3-fluoro-thiophen-2-yl)-3,4,8,9-tetrahydro-1H-pyrido[4′,3′:4,5]imidazo[2,1-c][1,4]oxazin-7(6H)-yl)-2-oxoethoxy)-N,N-dimethylpicolinamide]	0.037	–
CS(=O)(=O)Nc1ccc(OCC(=O)N2CCc3nc4n(c3C2c2ncc(Cl)cc2F)CCOC4)c(Cl)n1 (stereo not shown) [Example 6.4.1, N-(6-chloro-5-(2-(6-(5-chloro-3-fluoropyridin-2-yl)-3,4,8,9-tetrahydro-1H-pyrido[4′,3′:4,5]imidazo[2,1-c][1,4]oxazin-7(6H)-yl)-2-oxoethoxy)pyridin-2-yl)methanesulfonamide]	0.143	–
CN(C)C(=O)c1ccc(OCC(=O)N2CCc3nc4n(c3C2c2ncc(Cl)cc2F)CCOC4)c(Cl)n1 (stereo not shown) [Example 6.4.2, 6-chloro-5-(2-(6-(5-chloro-3-fluoropyridin-2-yl)-3,4,8,9-tetrahydro-1H-pyrido[4′,3′:4,5]imidazo[2,1-c][1,4]oxazin-7(6H)-yl)-2-oxoethoxy)-N,N-dimethylpicolinamide]	0.076	–
Cc1ccc(C2c3c(nc4n3CCOC4)CCN2C(=O)COc2ccc(C(=O)N(C)C)nc2Cl)c(F)c1 (stereo not shown) [Example 6.5.1, 6-chloro-5-(2-(6-(2-fluoro-4-methylphenyl)-3,4,8,9-tetrahydro-1H-pyrido[4′,3′:4,5]imidazo[2,1-c][1,4]oxazin-7(6H)-yl)-2-oxoethoxy)-N,N-dimethylpicolinamide]	0.007	–
O=C(COc1ccc(N2CCOCC2)nc1Cl)N1CCc2nc3n(c2C1c1sccc1F)CCOC3 (stereo not shown) [Example 6.6.1, 2-((2-chloro-6-morpholinopyridin-3-yl)oxy)-1-(6-(3-fluorothiophen-2-yl)-3,4,8,9-tetrahydro-1H-pyrido[4′,3′:4,5]imidazo[2,1-c][1,4]oxazin-7(6H)-yl)ethanone]	0.008	–
CN(C)C(=O)c1ccc(OCC(=O)N2CCc3nc4n(c3C2c2sccc2F)CCOC4)c(Cl)n1 (stereo not shown) [Example 6.6.2, 6-chloro-5-(2-(6-(3-fluorothiophen-2-yl)-3,4,8,9-tetrahydro-1H-pyrido[4′,3′:4,5]imidazo[2,1-c][1,4]oxazin-7(6H)-yl)-2-oxoethoxy)-N,N-dimethylpicolinamide]	0.029	–
CS(=O)(=O)Nc1ccc(OCC(=O)N2CCc3nc4n(c3C2c2sccc2F)CCOC4)c(Cl)n1 (stereo not shown) [Example 6.6.3, N-(6-chloro-5-(2-(6-(3-fluorothiophen-2-yl)-3,4,8,9-tetrahydro-1H-pyrido[4′,3′:4,5]imidazo[2,1-c][1,4]oxazin-7(6H)-yl)-2-oxoethoxy)pyridin-2-yl)methanesulfonamide]	0.16	–
Nc1nc(OC(c2ccc(-c3cccc(F)c3)cc2)C(F)(F)F)cc(-c2ccc(C[C@H](N)C(=O)O)cc2)n1 (stereo partly shown) [LP533401]	–	brain 5HT concentrations (5HT [2]): without effecting brain concentrations; gut 5HT (5HT [2]): lower gut 5HT
COc1cccc(-c2ccc([C@@H](Oc3cc(-c4ccc(C[C@H](N)C(=O)O)cc4)nc(N)n3)C(F)(F)F)cc2)c1 [LX1031, (S)-2-Amino-3-(4-{2-amino-6-[(R)-2,2,2-trifluoro-1-(3′-methoxy-biphenyl-4-yl)-ethoxy]-pyrimidin-4-yl}-phenyl)-propionic acid]	–	blood 5HT [3]: did not affect blood 5HT; urinary 5HIAA reduction [3]: up to 30%; 5HT in the colon (5HT [4]): only a minor reduction observed in the colon; 5HT in the jejunum (5HT [4]): lowers 5HT in the jejunum; brain 5HT (5HT [4]): no effect on brain 5HT
